Measured values from US20230218519A1, “FLUID GEL COMPOSITIONS” (The University of Birmingham, priority 2020, published 2023).
Read-outs that look alike come from different tables or passages of the source.

Columns and labels:
[1] = system: primary ovine chondrocytes; assay: Metabolic activity assay (PrestoBlue); format: cell-based
Method: All cell work was undertaken on primary ovine chondrocytes. Cells were first expanded, then seeded into wells 24 hrs prior to the application of the fluid gels. Once treatments were added, the cells were cultured for a further 3 days before testing for both metabolic activity and cell viability. In the presence of functionalised particles, suspension wells were used to promote adhesion to the gelled particles, away from the plastic. Metabolic activity assay was undertaken using a PrestoBlue™ assay kit (Invitrogen). In brief, cells were washed with Dulbecco's PBS, and 1 mL of PrestoBlue™ supplemented medium (10%) was added to each well and incubated for 4 hrs. 50 μL of supernatant from each well was transferred to one well of a 96 well plate and fluorescence was measured using a Tecan Spark (Tecan Group Ltd, UK) plate reader with excitation/emission wavelengths set at 550/620 nm.

[2] = Release assay from PEG-DA fluid gel (trans-well, UV/Vis); format: physicochemical; settings: 3% v/v PEG-DA fluid gel (Example 5.3, 500 rpm), into PBS at 37° C., 5 hrs
Method: • Active amounts: […] • Standard concentrations of active in PBS were prepared. • Standards were pipetted into a quartz cuvette (1 mm pathlength). • UV/Vis spectroscopy was used to measure absorbance between 200 and 700 nm wavelength. • Curves were plotted and used to determine standard curves which were used to determine concentrations. • 0.5 ml PBS was added to the well of a 24 well plate. • The PBS was incubated at 37° C. to equilibrate. • 0.1 ml of the fluid gel containing active was placed in a trans-well insert. • The trans-well insert was placed into a well containing PBS. • After a given time period the trans-well insert was removed and placed in a fresh well of PBS. • The release media was then removed and analysed using […] spectroscopy. Concentrations were derived from the standard curves and cumulative release plotted as a function of time.

| Compound | release of active agent from fluid gel [2] | further results |
| --- | --- | --- |
| CC(C)(O)C(=O)c1ccccc1 [Omnirad-1173, 2-hydroxy-2-methyl-1-phenylpropanone] | – | metabolic activity, each constituent part of the PEG-DA formulation ([1]; 3 days culture, PEG-DA not cured, 3.5% & 5%): slight reduction in cell metabolism, although not statistical |
| CC(C)Cc1ccc(C(C)C(=O)O)cc1 (stereo not shown) [Ibuprofen, ibuprofen] | able to release | – |
| dextran | able to release | – |
| CC(C)(O)C(=O)c1ccc(OCCO)cc1 [Irgacure-2959, 1-[4-(2-Hydroxyethoxy)-phenyl]-2-hydroxy-2-methyl-1-propane-1-one] | – | metabolic activity, each constituent part of the PEG-DA formulation [1]: slight reduction in cell metabolism, although not statistical |
